Assay [1] concerns the target T1, Recombinant full-length human IDO1 (Homo sapiens, UniProt P14902).
T1 construct: Recombinant full-length human IDO1 with a N-terminal hexahistidine tag; hexahistidine (N); made in house; host or cells: E. coli
Nature of the assay: IDO1 enzymatic assay (NFK quantified by LCMS). The assay is classed as biochemical. Conditions: 2 nM enzyme, 5 μM L-tryptophan, 30 min pre-incubation, pH6.5; mean if measured multiple times; read-out: hIDO activity (IC50 in nM). The method, then:
1) Testing Compounds for IDO Inhibitory Activity in an IDO1 Enzymatic Assay:
Recombinant full-length human IDO1 with a N-terminal hexahistidine tag expressed in E. coli and purified to homogeneity is incubated at a final concentration of 2 nM in assay buffer consisting of 37.5 mM phosphate buffer at pH6.5 supplemented with 10 mM ascorbic acid, 0.45 μM methylene blue, 50 U/ml catalase, 0.01% BSA, and 0.01% Tween 20 (protocol modified from Seegers et al, JBS 2014). Example compounds are serially diluted in DMSO, further diluted in phosphate buffer, and added to the enzyme at final concentrations ranging from 10 μM to 0.5 nM. The final DMSO concentration is 0.6%. Following a pre-incubation of 30 minutes at RT, the reaction is started by the addition of L-tryptophan at a final concentration of 5 μM in assay buffer. After 30 minutes of incubation at RT, 3 μL of the 20 μl reaction mixture are transferred to a 384 deep well plate containing 25 μL of deionized water. 100 μl of 200 nM L-Tryptophan-(indole-d5) in cold 100% methanol are added followed by a 10 minutes centrifugation at 3220×g at 4° C. An additional 75 μL of deionized water are then added followed by a 10 minutes centrifugation at 3220×g at 4° C. The product of the reaction N′-Formylkynurenine (NFK) is quantified by LCMS and normalized to the L-Tryptophan-(indole-d5) signal. Samples with 0.6% DMSO (0% effect) and a TDO/IDO inhibitor (100% effect) are used as control samples to set the parameters for the non-linear regression necessary for the determination of the half-maximal inhibitory concentration (IC50) for each compound. For each compound concentration the percentage of activity compared to 0% and 100% effect is calculated as average±STDEV (each concentration measured in duplicate). IC50 values and curves are generated with XLfit software (IDBS) using Dose-Response One Site model 203 (four parameter logistic curve model). The calculated IC50 values may fluctuate depending on the daily assay performance. Fluctuations of this kind are known to those skilled in the art. When compounds are measured multiple times, mean values are given.

In assay [2] the target is T2, Recombinant human TDO comprising amino acids 19-407 (Homo sapiens, UniProt P48775).
T2 construct: human TDO comprising amino acids 19-407; hexahistidine (N); made in house; host or cells: E. coli
Nature of the assay: TDO2 enzymatic assay (NFK quantified by LCMS). In kind it is biochemical. Conditions: 15 nM enzyme, 200 μM L-tryptophan, 30 min pre-incubation, pH7; mean if measured multiple times; read-out: hTDO activity (IC50 in nM). As to the method:
2) Testing Compounds for TDO Inhibitory Activity in a TDO2 Enzymatic Assay:
Recombinant human TDO comprising amino acids 19-407 with a N-terminal hexahistidine tag expressed in E. coli and purified to homogeneity is incubated at a final concentration of 15 nM in assay buffer consisting of 75 mM phosphate buffer at pH7 supplemented with 100 μM ascorbic acid, 50 U/ml Catalase, 0.01% BSA, and 0.01% Tween 20 (protocol modified from Seegers et al, JBS 2014). Example compounds are serially diluted in DMSO, further diluted in phosphate buffer, and added to the reaction mixture at final concentrations ranging from 10 μM to 0.5 nM. The final DMSO concentration is 0.6%. Following a pre-incubation of 30 minutes at RT, the reaction is started by the addition of L-tryptophan at a final concentration of 200 μM in assay buffer. After 30 minutes of incubation at RT, 3 μL of the reaction mixture are transferred to a 384 deep well plate containing 25 μL of deionized water. 100 μl of 200 nM L-Tryptophan-(indole-d5) in cold 100% methanol are added followed by a 10 minutes centrifugation at 3220×g at 4° C. An additional 75 μL of deionized water are then added followed by a 10 minutes centrifugation at 3220×g at 4° C. The product of the reaction N′-Formylkynurenine (NFK) is quantified by LCMS and normalized to the L-Tryptophan-(indole-d5) signal. Samples with 0.6% DMSO (0% effect) and a TDO/IDO inhibitor (100% effect) are used as control samples to set the parameters for the non-linear regression necessary for the determination of the half-maximal inhibitory concentration (IC50) for each compound. For each compound concentration the percentage of activity compared to 0% and 100% effect is calculated as average±STDEV (each concentration measured in duplicate). IC50 values and curves are generated with XLfit software (IDBS) using Dose-Response One Site model 203 (four parameter logistic curve model). The calculated IC50 values may fluctuate depending on the daily assay performance. Fluctuations of this kind are known to those skilled in the art. When compounds are measured multiple times, mean values are given.

The target of the next assay is T3, IDO1 in SKOV3 cells (Homo sapiens, UniProt P14902).
T3 construct: SKOV3 cells (NCI, No. 0503405) which upregulate IDO1 after stimulation with IFNγ; host or cells: SKOV3 cells stimulated with IFNγ
Nature of the assay: Cell-based IDO inhibitory activity in IFNγ-stimulated SKOV3 cells (NFK + kynurenine by LCMS). Conditions: IFNγ 50 ng/ml, 200 uM L-tryptophan, 24 hours. The source says:
3) Testing Compounds for IDO/TDO Inhibitory Activity and Toxicity in Cell-Based Assays
SW48 cells (ATCC, CCL-231) are used to measure compounds for TDO inhibitory activity and are routinely maintained in DMEM high glucose/GlutaMAX™/pyruvate 90% (v/v), FCS 10% (v/v), Penicilin/streptomycin 1% (v/v). SKOV3 cells (NCI, No. 0503405) which upregulate IDO1 after stimulation with IFNγ are used to measure compounds for IDO inhibitory activity. SKOV3 cells are routinely maintained in RPMI 90% (v/v), FCS 10% (v/v), Penicilin/streptomycin 1% (v/v). SW48 or SKOV3 cells are seeded in 384 well plates at a density of 8000 cells in 45 ul per well or 4000 cells in 45 ul per well, respectively. Plates are incubated at 37° C./5% CO2 for 24 hours. On the next day, 10 ul compound in serial dilutions (tested concentration range 10 uM-40 nM) and 200 uM L-tryptophan are added (SKV03 receive in addition IFNγ at a final concentration of 50 ng/ml). After 24 hours of incubation at 37° C./5% CO2, 3 ul of the supernatant per well is transferred to 25 ul H2O per well in a 384 deep well plate and 25 ul of the supernatant per well is transferred to waste. The SKOV3 and SW48 cell plates with 25 ul supernatant per well remaining are used to measure viability (see below). The 384 deep well plate containing 3 ul supernatant and 25 ul H2O per well are further processed for LCMS: After the addition of 100 ul L-tryptophan-(indole-d5) (Sigma 615862) at 200 nM in methanol, the 384 deep well plates are centrifuged for 10 minutes at 3220×g at 4° C., 75 ul H2O is added per well and plates centrifuged again for 10 minutes at 3220×g at 4° C. N-formylkynurenine and kynurenine are quantified by LCMS, normalized to the internal standard L-tryptophan-(indole-d5) and the sum is calculated. Samples with 0.2% DMSO (0% effect) and a TDO/IDO inhibitor (100% effect) are used as control samples to set the parameters for the non-linear regression necessary for the determination of the IC50 for each compound. For each compound concentration the percentage of activity compared to 0% and 100% effect is calculated as average±STDEV (each concentration measured in duplicate). IC50 values and curves are generated with XLfit software (IDBS) using Dose-Response One Site model 203. The calculated IC50 values may fluctuate depending on the daily cellular assay performance. Fluctuations of this kind are known to those skilled in the art. When compounds are measured multiple times, mean values are given.

Where only a bound is given, the exact number is not on record here.

T2 sequence (P48775 19-406 limits assumed): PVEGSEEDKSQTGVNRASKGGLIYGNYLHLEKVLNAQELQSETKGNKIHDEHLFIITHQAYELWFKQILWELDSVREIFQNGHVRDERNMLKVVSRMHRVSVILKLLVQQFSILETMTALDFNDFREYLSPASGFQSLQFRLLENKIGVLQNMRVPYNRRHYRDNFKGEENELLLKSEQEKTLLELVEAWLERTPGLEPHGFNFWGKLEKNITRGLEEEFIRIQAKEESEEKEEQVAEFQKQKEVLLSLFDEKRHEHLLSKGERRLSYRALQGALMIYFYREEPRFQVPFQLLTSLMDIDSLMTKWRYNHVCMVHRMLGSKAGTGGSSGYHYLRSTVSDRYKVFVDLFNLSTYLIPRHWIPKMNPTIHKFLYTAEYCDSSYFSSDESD
T1 sequence (P14902 whole entry): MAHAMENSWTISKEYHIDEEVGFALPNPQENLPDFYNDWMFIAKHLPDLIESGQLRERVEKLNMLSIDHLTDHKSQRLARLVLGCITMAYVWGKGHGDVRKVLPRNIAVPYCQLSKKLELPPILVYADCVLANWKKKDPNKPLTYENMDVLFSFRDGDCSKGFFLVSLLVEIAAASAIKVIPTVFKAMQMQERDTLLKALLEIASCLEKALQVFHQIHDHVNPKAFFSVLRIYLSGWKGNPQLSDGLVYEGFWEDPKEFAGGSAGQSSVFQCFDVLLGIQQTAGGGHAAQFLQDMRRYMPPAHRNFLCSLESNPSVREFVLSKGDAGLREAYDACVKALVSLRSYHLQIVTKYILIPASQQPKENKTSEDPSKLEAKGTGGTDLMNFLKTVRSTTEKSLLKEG
T3 sequence (P14902 whole entry): as above

For the compound `O[C@@H](c1cn(-c2ccccc2)nn1)c1c(C2CC2)ncc2cncn12` [Example 3a, (R)-(6-Cyclopropyl-imidazo[1,5-a]pyrazin-5-yl)-(1-phenyl-1H-[1,2,3]triazol-4-yl)-methanol], the concentration for half-maximal inhibition (IC50) (in general, the concentration that gives 50% inhibition) in assay [1] was 16.7 nM; in assay [2] it was more than 10200 nM; at IDO1 in SKOV3 cells, 282 nM.

Take `Oc1ccc(-n2cc(C(O)c3c(C4CC4)ccc4cncn34)nn2)cc1` (racemic) [Example 14, rac-4-{4-[(6-Cyclopropyl-imidazo[1,5-a]pyridin-5-yl)-hydroxy-methyl]-[1,2,3]triazol-1-yl}-phenol]: the IC50 is 5.05 nM in assay [1], more than 10200 nM in assay [2] and 34.6 nM at IDO1 in SKOV3 cells.

With `COc1ccc(-n2cc(C(O)c3c(C4CC4)ncc4cncn34)nn2)cc1` (racemic) [Example 17, rac-(6-Cyclopropyl-imidazo[1,5-a]pyrazin-5-yl)-[1-(4-methoxy-phenyl)-1H-[1,2,3]triazol-4-yl]-methanol], the IC50 is 20.4 nM in assay [1], more than 10200 nM in assay [2] and 172 nM on IDO1 in SKOV3 cells.

As for `COc1cc(F)c(-n2nnc(C(O)c3c(C4CC4)ncc4cncn34)c2C)cc1F` (racemic) [Example 55, rac-(6-Cyclopropyl-imidazo[1,5-a]pyrazin-5-yl)-[1-(2,5-difluoro-4-methoxy-phenyl)-5-methyl-1H-[1,2,3]triazol-4-yl]-methanol], the IC50 in assay [2] is more than 10200 nM; at IDO1 in SKOV3 cells, 35 nM.

Take `Cc1c(C(O)c2c(Cl)ccc3cncn23)nnn1-c1ccc(OCCC(C)(C)O)c(F)c1` (racemic) [Example 50, rac-4-(4-{4-[(6-Chloro-imidazo[1,5-a]pyridin-5-yl)-hydroxy-methyl]-5-methyl-[1,2,3]triazol-1-yl}-2-fluoro-phenoxy)-2-methyl-butan-2-ol]: the half-inhibitory concentration (IC50) was 8200 nM in assay [2] and 5.41 nM on IDO1 in SKOV3 cells.

With `COc1ccc(-n2nnc(C(O)c3c(Cl)ccc4cncn34)c2Cl)cc1` (racemic) [Example 51, rac-(6-Chloro-imidazo[1,5-a]pyridin-5-yl)-[5-chloro-1-(4-methoxy-phenyl)-1H-[1,2,3]triazol-4-yl]-methanol], the IC50 in assay [2] worked out at 7040 nM; on IDO1 in SKOV3 cells, 145 nM.

With `O[C@@H](c1cn(-c2cc(F)c(OCC3(F)COC3)cc2F)nn1)c1c(C2CC2)ncc2cncn12` [Example 52, (R)-(6-Cyclopropyl-imidazo[1,5-a]pyrazin-5-yl)-{1-[2,5-difluoro-4-(3-fluoro-oxetan-3-ylmethoxy)-phenyl]-1H-[1,2,3]triazol-4-yl}-methanol], the IC50 in assay [2] was more than 10200 nM; at IDO1 in SKOV3 cells, 18.1 nM.

For the compound `O[C@@H](c1cn(-c2cc(F)c(OCC3COC3)cc2F)nn1)c1c(C2CC2)ncc2cncn12` [Example 53, (R)-(6-Cyclopropyl-imidazo[1,5-a]pyrazin-5-yl)-{1-[2,5-difluoro-4-(oxetan-3-ylmethoxy)-phenyl]-1H-[1,2,3]triazol-4-yl}-methanol], the concentration for half-maximal inhibition (IC50) was more than 10200 nM in assay [2] and 27.4 nM at IDO1 in SKOV3 cells.

As to `CC(C)(O)COc1cc(F)c(-n2cc([C@H](O)c3c(C4CC4)ncc4cncn34)nn2)cc1F` [Example 56, 1-(4-{4-[(R)-(6-Cyclopropyl-imidazo[1,5-a]pyrazin-5-yl)-hydroxy-methyl]-[1,2,3]triazol-1-yl}-2,5-difluoro-phenoxy)-2-methyl-propan-2-ol], the half-inhibitory concentration (IC50) in assay [2] is more than 10200 nM; on IDO1 in SKOV3 cells it was 29.3 nM.

Regarding `Cc1c(C(O)c2c(Cl)ccc3cncn23)nnn1-c1ccc(OCCC(C)(C)O)c(Cl)c1` (racemic) [Example 49, rac-4-(2-Chloro-4-{4-[(6-chloro-imidazo[1,5-a]pyridin-5-yl)-hydroxy-methyl]-5-methyl-[1,2,3]triazol-1-yl}-phenoxy)-2-methyl-butan-2-ol], the values for the IC50 (in assay [2]; at IDO1 in SKOV3 cells) were 8360 nM and 10.2 nM, respectively.

Turning to `Cc1c(C(O)c2c(C3CC3)ncc3cncn23)nnn1-c1ccc(F)cc1F` (racemic) [Example 54, rac-(6-Cyclopropyl-imidazo[1,5-a]pyrazin-5-yl)-[1-(2,4-difluoro-phenyl)-5-methyl-1H-[1,2,3]triazol-4-yl]-methanol], the IC50 in assay [2] is more than 10200 nM; at IDO1 in SKOV3 cells, 364 nM.

Take `Cc1c(C(O)c2c(C3CC3)ncc3cncn23)nnn1-c1ccccc1F` (racemic) [Example 57, rac-(6-Cyclopropyl-imidazo[1,5-a]pyrazin-5-yl)-(1-(2-fluoro-phenyl)-5-methyl-1H-[1,2,3]triazol-4-yl-methanol]: the figures for the IC50 (in assay [2]; on IDO1 in SKOV3 cells) were more than 10200 nM and 333 nM, respectively.

Take `COc1ccc(-n2cc([C@H](O)c3c(C4CC4)ncc4cncn34)nn2)cc1Br` [Example 23, (R)-[1-(3-Bromo-4-methoxy-phenyl)-1H-[1,2,3]triazol-4-yl]-(6-cyclopropyl-imidazo[1,5-a]pyrazin-5-yl)-methanol]: the values for the IC50 (in assay [1]; on IDO1 in SKOV3 cells) were 9.61 nM and 51.9 nM, respectively.

Source of the values: patent US20220259212A1, “INHIBITORS OF INDOLEAMINE 2,3-DIOXYGENASE AND/OR TRYPTOPHAN 2,3-DIOXYGENASE” (Idorsia Pharmaceuticals Ltd, priority 2019, published 2022).
